Measured values from ChEMBL document CHEMBL1681683, “Synthesis and biological evaluation of 1,4-benzodiazepin-2-ones with antitrypanosomal activity” (Bioorg Med Chem, 2011).
≈ marks a conversion by molar mass, not a printed value.

Tests used:
[1] = test system: Trypanosoma brucei brucei; test: Antitrypanosomal activity against bloodstream form of Trypanosoma brucei brucei […] after 48 hrs by alamar blue assay; type: functional
[2] = test system: Trypanosoma brucei brucei; test: Antitrypanosomal activity against TbAT1-deficient Trypanosoma brucei brucei after 48 hrs by alamar blue assay; type: functional, organism-based
[3] = test system: Trypanosoma brucei brucei; test: Antitrypanosomal activity against TbAT1 and HAPT1-deficient Trypanosoma brucei brucei B48 after 48 hrs by alamar blue assay; type: functional, organism-based
[4] = test system: Trypanosoma brucei brucei; test: Resistance factor, ratio of IC50 for TbAT1-deficient bloodstream form of Trypanosoma brucei brucei to IC50 for wild-type bloodstream form of Trypanosoma brucei brucei s427; type: functional
[5] = test system: Trypanosoma brucei brucei; test: Resistance factor, ratio of IC50 for Trypanosoma brucei brucei B48 to IC50 for wild-type bloodstream form of Trypanosoma brucei brucei s427; type: functional
[6] = test system: Trypanosoma brucei brucei; test: Antitrypanosomal activity against bloodstream form of Trypanosoma brucei brucei s427 after 48 hrs by alamar blue assay; type: functional, organism-based; conditions: s427, 48 h
[7] = Trypanosoma brucei, 48 h, read-out: IC50
[8] = Trypanosoma brucei, B48, 48 h, read-out: IC50

SMILES	MIC [1] [µM]	also measured
O=C1[C@H](Cc2ccccc2)N=C(c2ccccc2)c2ccccc2N1Cc1cccc(-c2ccccc2)c1	25 (≈ 12.3 µg/mL)	–
O=C1[C@H](COCc2ccccc2)N=C(c2ccccc2)c2ccccc2N1Cc1cccc(-c2ccccc2)c1	25 (≈ 13.1 µg/mL)	–
CC(C)C1=NCC(=O)Nc2ccccc21	> 400	–
CC(C)[C@@H]1N=C(C2CCCCC2)c2cc(NC(=N)N)ccc2NC1=O	1.56 (≈ 0.533 µg/mL)	–
N#CCN1C(=O)[C@H](Cc2ccccc2)N=C(c2ccccc2)c2ccccc21	3.1 (≈ 1.13 µg/mL)	–
Nc1ccc(CN2C(=O)[C@H](Cc3ccccc3)N=C(c3ccccn3)c3ccccc32)cc1	25 (≈ 10.8 µg/mL)	–
CC(C)[C@@H]1N=C(c2ccccc2)c2ccccc2NC1=O	100 (≈ 27.8 µg/mL)	–
CC(C)C1=N[C@@H](Cc2ccccc2)C(=O)N(C)c2ccccc21	25 (≈ 7.66 µg/mL)	–
O=C1CN=C(c2ccccc2)c2ccccc2N1 [RO-052921]	400 (≈ 94.5 µg/mL)	–
CC(C)[C@@H]1N=C(C2CCCCC2)c2cc(N)ccc2N(Cc2ccc(N)cc2)C1=O	6.25 (≈ 2.53 µg/mL)	–
CC(C)[C@@H]1N=C(C2CCCCC2)c2ccccc2N(Cc2ccc(NC(=N)N)cc2)C1=O	6.25 (≈ 2.7 µg/mL)	–
Nc1nc(N)nc(Nc2ccc([As]3SCC(CO)S3)cc2)n1 (stereo not given) [MELARSOPROL]	–	IC50 [2]: Not Active; IC50 [3]: Not Active
CC(C)[C@@H]1N=C(C2CCCCC2)c2ccccc2N(Cc2ccc(N)cc2)C1=O	6.25 (≈ 2.43 µg/mL)	–
CC(C)[C@H]1N=C(c2ccccc2)c2ccccc2NC1=O	200 (≈ 55.7 µg/mL)	–
CN1C(=O)[C@H](Cc2ccccc2)N=C(c2ccccc2)c2ccccc21	50 (≈ 17 µg/mL)	–
CC(C)C1=N[C@@H](Cc2ccccc2)C(=O)Nc2ccccc21	50 (≈ 14.6 µg/mL)	–
N=C(N)Nc1ccc(CN2C(=O)[C@H](Cc3ccccc3)N=C(C3CCCCC3)c3ccccc32)cc1	0.78 (≈ 0.374 µg/mL)	–
Nc1cccc(CN2C(=O)[C@H](Cc3ccccc3)N=C(c3ccccc3)c3ccccc32)c1	6.25 (≈ 2.7 µg/mL)	–
N=C(N)Nc1ccc(CN2C(=O)[C@H](Cc3ccccc3)N=C(c3ccccn3)c3ccccc32)cc1	3.13 (≈ 1.49 µg/mL)	–
O=C(CN1C(=O)[C@H](Cc2ccccc2)N=C(c2ccccc2)c2ccccc21)N1CCN(c2ncccn2)CC1	12.5 (≈ 6.63 µg/mL)	–

SMILES	MIC [1] [µM]	also measured
O=C1[C@H](Cc2ccccc2)N=C(c2ccccc2)c2ccccc2N1Cc1ccc(-c2ccccc2)cc1	6.25 (≈ 3.08 µg/mL)	–
O=C1[C@H](Cc2ccccc2)N=C(c2ccccc2)c2ccccc2N1Cc1ccccc1-c1ccccc1	6.25 (≈ 3.08 µg/mL)	–
O=C1[C@H](Cc2ccccc2)N=C(C2CCCCC2)c2ccccc2N1Cc1ccccc1	6.25 (≈ 2.64 µg/mL)	–
N=C(N)Nc1cccc(CN2C(=O)[C@H](Cc3ccccc3)N=C(c3ccccc3)c3ccccc32)c1	0.78 (≈ 0.369 µg/mL)	Ratio IC50 [4]: 1.45; IC50 [2, 7]: 390 nM; Ratio IC50 [5]: 3.52; IC50 [3, 8]: 940 nM; IC50 [6]: 270 nM
O=C1[C@H](COCc2ccccc2)N=C(c2ccccc2)c2ccccc2N1Cc1ccc(-c2ccccc2)cc1	25 (≈ 13.1 µg/mL)	–
Nc1ccc(CN2C(=O)[C@H](Cc3ccccc3)N=C(C3CCCCC3)c3ccccc32)cc1	6.25 (≈ 2.73 µg/mL)	–
CN1C(=O)[C@@H](Cc2ccccc2)N=C(c2ccccc2)c2ccccc21	400 (≈ 136 µg/mL)	–
Nc1ccccc1CN1C(=O)[C@H](Cc2ccccc2)N=C(c2ccccc2)c2ccccc21	6.25 (≈ 2.7 µg/mL)	–
O=C(CN1C(=O)[C@H](Cc2ccccc2)N=C(c2ccccc2)c2ccccc21)N1CCNCC1	12.5 (≈ 5.66 µg/mL)	–
N=C(N)Nc1ccc(CN2C(=O)[C@H](Cc3ccccc3)N=C(c3ccccc3)c3ccccc32)cc1	0.78 (≈ 0.369 µg/mL)	Ratio IC50 [4]: 1.29; IC50 [2, 7]: 640 nM; Ratio IC50 [5]: 2.68; IC50 [3, 8]: 1310 nM; IC50 [6]: 490 nM
CC(C)[C@@H]1N=C(c2ccccc2)c2ccccc2N(Cc2cccc3cccnc23)C1=O	25 (≈ 10.5 µg/mL)	–
N=C(N)Nc1cccc(CN2C(=O)[C@H](Cc3ccccc3)N=C(C3CCCCC3)c3ccccc32)c1	1.56 (≈ 0.748 µg/mL)	Ratio IC50 [4]: 1.53; IC50 [2, 7]: 510 nM; Ratio IC50 [5]: 2.8; IC50 [3, 8]: 930 nM; IC50 [6]: 330 nM
Nc1ccc(CN2C(=O)[C@H](Cc3ccccc3)N=C(c3ccccc3)c3ccccc32)cc1	12.5 (≈ 5.39 µg/mL)	–
N=C(N)NCCC[C@@H]1N=C(c2ccccc2)c2ccccc2NC1=O	400 (≈ 134 µg/mL)	–
CC(C)[C@@H]1N=C(c2ccccc2)c2ccccc2N(Cc2ccccc2-c2ccccc2)C1=O	12.5 (≈ 5.56 µg/mL)	–
O=C1Nc2ccccc2C(C2CCCCC2)=N[C@H]1Cc1ccccc1	12.5 (≈ 4.16 µg/mL)	–
N=C(N)c1ccc(OCCCCCOc2ccc(C(=N)N)cc2)cc1 [PENTAMIDINE]	–	IC50 [2]: Not Active; IC50 [3]: Not Active
CC(C)[C@@H]1N=C(c2ccccc2)c2ccccc2N(Cc2ccccc2)C1=O	200 (≈ 73.7 µg/mL)	–
N=C(N)Nc1ccccc1CN1C(=O)[C@H](Cc2ccccc2)N=C(c2ccccc2)c2ccccc21	1.56 (≈ 0.739 µg/mL)	–
O=C1[C@H](Cc2ccccc2)N=C(c2ccccc2)c2ccccc2N1Cc1cccc2cccnc12	25 (≈ 11.7 µg/mL)	–

SMILES	MIC [1] [µM]	also measured
CC(C)[C@@H]1N=C(C2CCCCC2)c2cc(N)ccc2NC1=O	100 (≈ 29.9 µg/mL)	–
CC(C)[C@@H]1N=C(C2CCCCC2)c2cc(NC(=N)N)ccc2N(Cc2ccc(NC(=N)N)cc2)C1=O	0.78 (≈ 0.381 µg/mL)	–
O=C1[C@@H](Cc2ccccc2)N=C(c2ccccc2)c2ccccc2N1Cc1ccccc1	12.5 (≈ 5.21 µg/mL)	–
Nc1cccc(CN2C(=O)[C@H](Cc3ccccc3)N=C(C3CCCCC3)c3ccccc32)c1	6.25 (≈ 2.73 µg/mL)	–
O=C1Nc2ccccc2C(c2ccccc2)=N[C@@H]1Cc1ccccc1	50 (≈ 16.3 µg/mL)	–
CC(C)[C@@H]1N=C(C2CCCCC2)c2ccccc2NC1=O	25 (≈ 7.11 µg/mL)	–
CC(C)[C@H]1N=C(c2ccccc2)c2ccccc2N(Cc2ccccc2)C1=O	12.5 (≈ 4.61 µg/mL)	–
Cc1ccc(C(=O)Nc2ccc(S(=O)(=O)O)c3cc(S(=O)(=O)O)cc(S(=O)(=O)O)c23)cc1NC(=O)c1cccc(NC(=O)Nc2cccc(C(=O)Nc3cc(C(=O)Nc4ccc(S(=O)(=O)O)c5cc(S(=O)(=O)O)cc(S(=O)(=O)O)c45)ccc3C)c2)c1 [SURAMIN HEXASODIUM]	0.13	–
O=C1Nc2ccccc2C(c2ccccn2)=N[C@H]1Cc1ccccc1	100 (≈ 32.7 µg/mL)	–
CC(C)[C@@H]1N=C(C2CCCCC2)c2cc([N+](=O)[O-])ccc2NC1=O	12.5 (≈ 4.12 µg/mL)	–
O=C(O)CN1C(=O)[C@H](Cc2ccccc2)N=C(c2ccccc2)c2ccccc21	50 (≈ 19.2 µg/mL)	–
O=C1[C@H](Cc2ccccc2)N=C(c2ccccc2)c2ccccc2N1Cc1ccccc1	6.25 (≈ 2.6 µg/mL)	–
O=C1[C@H](COCc2ccccc2)N=C(c2ccccc2)c2ccccc2N1Cc1cccc2cccnc12	12.5 (≈ 6.22 µg/mL)	–
O=C(CN1C(=O)[C@H](Cc2ccccc2)N=C(c2ccccc2)c2ccccc21)N1CCN(c2ccccn2)CC1	6.25 (≈ 3.31 µg/mL)	–
O=C1Nc2ccccc2C(c2ccccc2)=N[C@H]1Cc1ccccc1	6.25 (≈ 2.04 µg/mL)	Ratio IC50 [4]: 0.57; IC50 [2, 7]: 7840 nM; Ratio IC50 [5]: 0.67; IC50 [3, 8]: 9230 nM; IC50 [6]: 13800 nM
CC(C)C1=NCC(=O)N(C)c2ccccc21	400 (≈ 86.5 µg/mL)	–
CC(C)[C@H]1N=C(c2ccccc2)c2ccccc2N(C)C1=O	200 (≈ 58.5 µg/mL)	–
CC(C)[C@@H]1N=C(c2ccccc2)c2ccccc2N(C)C1=O	100 (≈ 29.2 µg/mL)	–
